In US20100317850A1 (priority 2008, published 2010):

Test system: Aβ42 production
Test: Quantification of Aβ peptide in culture of neurons from rat fetus brain (Aβ ELISA)
Format: cell-based
Settings: Neuron, 72 h; rat primary neuronal culture (cerebral cortex, embryonic day 18 Wistar rats); medium collected three days after addition of the compound; Aβx-42 ELISA; read-out: Aβ42 production reducing effect IC50
How it was run: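 Primary cortical neurons from embryonic day 18 Wistar rats were cultured 4 days, then exposed to compound in Neurobasal/B27 without 2-ME, final DMSO ≤1%. After three days, medium was collected and Aβx-42 measured undiluted by sandwich ELISA.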

| SMILES | IC50 |
| --- | --- |
| NC1=N[C@@]2(c3cc(NC(=O)c4ccc(C(F)(F)F)cn4)ccc3F)CCCCC[C@H]2CS1 (single isomer, unassigned) [Example 250, N-[3-((4aR*,9aS*)-2-amino-4a,5,6,7,8,9-hexahydro-4H-cyclohepta[d][1,3]thiazin-9a-yl)-4-fluorophenyl]-5-trifluoromethylpyridine-2-carboxamide] | 27 nM |
| NC1=N[C@@]2(c3cc(NC(=O)c4ccc(F)cn4)ccc3F)CCCC[C@H]2CS1 (single isomer, unassigned) [Example 256, N-[3-((4aR*,8aS*)-2-amino-4,4a,5,6,7,8-hexahydrobenzo[d][1,3]thiazin-8a-yl)-4-fluorophenyl]-5-fluoropyridine-2-carboxamide] | 38 nM |
| NC1=N[C@@]2(c3cc(NC(=O)c4ncc(Cl)cc4Cl)ccc3F)CCCC[C@H]2CS1 (single isomer, unassigned) [Example 257, N-[3-((4aR*,8aS*)-2-amino-4,4a,5,6,7,8-hexahydrobenzo[d][1,3]thiazin-8a-yl)-4-fluorophenyl]-3,5-dichloropyridine-2-carboxamide] | 17 nM |
| COC[C@H]1C[C@]2(c3cc(NC(=O)c4cnc(OCF)cn4)ccc3F)N=C(N)SC[C@@H]2CO1 [Example 38, N-[3-((4aS,7R,8aS)-2-amino-7-methoxymethyl-4a,5,7,8-tetrahydro-4H-6-oxa-3-thia-1-azanaphthalen-8a-yl)-4-fluorophenyl]-5-fluoromethoxypyrazine-2-carboxamide] | 6 nM |
| COC[C@H]1C[C@]2(c3cc(NC(=O)c4ccc(C#N)cn4)ccc3F)N=C(N)SC[C@@H]2CO1 [Example 39, N-[3-((4aS,7R,8aS)-2-amino-7-methoxymethyl-4a,5,7,8-tetrahydro-4H-6-oxa-3-thia-1-azanaphthalen-8a-yl)-4-fluorophenyl]-5-cyanopyridine-2-carboxamide] | 7 nM |
| COC[C@H]1C[C@]2(c3cc(NC(=O)c4cnc(C(F)F)cn4)ccc3F)N=C(N)SC[C@@H]2CO1 [Example 40, N-[3-((4aS,7R,8aS)-2-amino-7-methoxymethyl-4a,5,7,8-tetrahydro-4H-6-oxa-3-thia-1-azanaphthalen-8a-yl)-4-fluorophenyl]-5-difluoromethylpyrazine-2-carboxamide] | 26 nM |
| NC1=N[C@@]2(c3cc(NC(=O)c4cnc(OCF)cn4)ccc3F)C[C@H](CF)OC[C@H]2CS1 [Example 41, N-[3-((4aS,7R,8aS)-2-amino-7-fluoromethyl-4a,5,7,8-tetrahydro-4H-6-oxa-3-thia-1-azanaphthalen-8a-yl)-4-fluorophenyl]-5-fluoromethoxypyrazine-2-carboxamide] | 6 nM |
| N#Cc1ccc(C(=O)Nc2ccc(F)c([C@]34C[C@H](CF)OC[C@H]3CSC(N)=N4)c2)nc1 [Example 42, N-[3-((4aS,7R,8aS)-2-amino-7-fluoromethyl-4a,5,7,8-tetrahydro-4H-6-oxa-3-thia-1-azanaphthalen-8a-yl)-4-fluorophenyl]-5-cyanopyridine-2-carboxamide] | 4 nM |
| NC1=N[C@@]2(c3cc(NC(=O)c4cnc(C(F)F)cn4)ccc3F)C[C@H](CF)OC[C@H]2CS1 [Example 43, N-[3-((4aS,7R,8aS)-2-amino-7-fluoromethyl-4a,5,7,8-tetrahydro-4H-6-oxa-3-thia-1-azanaphthalen-8a-yl)-4-fluorophenyl]-5-difluoromethylpyrazine-2-carboxamide] | 19 nM |
| NC1=N[C@@]2(c3cccc(-c4cccnc4F)c3)CN(C(=O)CC3CC3)C[C@H]2CS1 [Example 48] | 575 nM |
| COC[C@H]1OC[C@]2(c3cc(NC(=O)c4ccc(C#N)cn4)ccc3F)N=C(N)SC[C@H]12 [Example 66, N-[3-((4aS,5S,7aS)-2-amino-5-methoxymethyl-4a, 5-dihydro-4H-furo[3,4-d][1,3]thiazin-7a-yl)-4-fluorophenyl]-5-cyanopyridine-2-carboxamide] | 1.3 nM |
| COC[C@H]1OC[C@]2(c3cc(NC(=O)c4cnc(OC(F)F)cn4)ccc3F)N=C(N)SC[C@H]12 [Example 67, N-[3-((4aS,5S,7aS)-2-amino-5-methoxymethyl-4a,5-dihydro-4H-furo[3,4-d][1,3]thiazin-7a-yl)-4-fluorophenyl]-5-difluoromethoxy-pyrazine-2-carboxamide] | 1.4 nM |
| COC[C@H]1OC[C@]2(c3cc(NC(=O)c4cnc(C(F)F)cn4)ccc3F)N=C(N)SC[C@H]12 [Example 68, N-[3-((4aS,5S,7aS)-2-amino-5-methoxymethyl-4a,5-dihydro-4H-furo[3,4-d][1,3]thiazin-7a-yl)-4-fluorophenyl]-5-difluoromethylpyrazine-2-carboxamide] | 6 nM |
| COC[C@H]1OC[C@]2(c3cc(NC(=O)c4cnc(OCF)cn4)ccc3F)N=C(N)SC[C@H]12 [Example 69, N-[3-((4aS,5S,7aS)-2-amino-5-methoxymethyl-4a,5-dihydro-4H-furo[3,4-d][1,3]thiazin-7a-yl)-4-fluorophenyl]-5-fluoromethoxypyrazine-2-carboxamide] | 2 nM |
| NC1=N[C@@]2(c3cc(NC(=O)c4ccc(C(F)(F)F)cn4)ccc3F)CO[C@H](CF)[C@H]2CS1 [Example 70, N-[3-((4aS,5S,7aS)-2-amino-5-fluoromethyl-4a,5-dihydro-4H-furo[3,4-d][1,3]thiazin-7a-yl)-4-fluorophenyl]-5-trifluoromethylpyridine-2-carboxamide] | 2 nM |
| NC1=N[C@@]2(c3cc(NC(=O)c4ccc(Cl)cn4)ccc3F)CO[C@H](CF)[C@H]2CS1 [Example 71, N-[3-((4aS,5S,7aS)-2-amino-5-fluoromethyl-4a,5-dihydro-4H-furo[3,4-d][1,3]thiazin-7a-yl)-4-fluorophenyl]-5-chloropyridine-2-carboxamide] | 1 nM |
| NC1=N[C@@]2(c3cc(NC(=O)c4ccc(OC(F)F)cn4)ccc3F)CO[C@H](CF)[C@H]2CS1 [Example 72, N-[3-((4aS,5,7aS)-2-amino-5-fluoromethyl-4a,5-dihydro-4H-furo[3,4-d][1,3]thiazin-7a-yl)-4-fluorophenyl]-5-difluoromethoxypyridine-2-carboxamide] | 2 nM |
| NC1=N[C@@]2(c3cc(NC(=O)c4cnc(C(F)F)cn4)ccc3F)CO[C@H](CF)[C@H]2CS1 [Example 73, N-[3-((4aS,5S,7aS)-2-amino-5-fluoromethyl-4a,5-dihydro-4H-furo[3,4-d][1,3]thiazin-7a-yl)-4-fluorophenyl]-5-difluoromethylpyrazine-2-carboxamide] | 7 nM |
| NC1=N[C@@]2(c3cc(NC(=O)c4cnc(OCF)cn4)ccc3F)CO[C@H](CF)[C@H]2CS1 [Example 75, N-[3-((4aS,5,7aS)-2-amino-5-fluoromethyl-4a,5-dihydro-4H-furo[3,4-d][1,3]thiazin-7a-yl)-4-fluorophenyl]-5-fluoromethoxypyrazine-2-carboxamide] | 3 nM |
| NC1=N[C@@]2(c3cccc(-c4cccnc4F)c3)CN(C(=O)c3ccccc3)C[C@H]2CS1 [Example 82] | 425 nM |
| NC1=N[C@@]2(c3cccc(-c4cccnc4F)c3)CN(C(=O)C3CC3)C[C@H]2CS1 [Example 84] | 893 nM |

| SMILES | IC50 |
| --- | --- |
| NC1=N[C@@]2(c3cccc(-c4cccnc4F)c3)CN(c3cnccn3)C[C@H]2CS1 [Example 87] | 62 nM |
| NC1=N[C@@]2(c3cccc(-c4cccnc4F)c3)CN(c3cccc(F)n3)C[C@H]2CS1 [Example 88] | 75 nM |
| Cc1cnc(C(=O)Nc2ccc(F)c([C@]34CCCC[C@H]3CSC(N)=N4)c2)cn1 [Example 117] | 158 nM |
| NC1=N[C@@]2(c3cc(NC(=O)c4ncc(Br)cn4)ccc3F)CCCC[C@H]2CS1 [Example 120] | 38 nM |
| NC1=N[C@@]2(c3cc(NC(=O)c4ncccn4)ccc3F)CCCC[C@H]2CS1 [Example 121] | 263 nM |
| NC1=N[C@@]2(c3cc(NC(=O)c4ccc(Br)o4)ccc3F)CCCC[C@H]2CS1 [Example 122] | 123 nM |
| N#Cc1cnc(C(=O)Nc2ccc(F)c([C@]34CCC[C@H]3CSC(N)=N4)c2)nc1 [Example 126] | 70 nM |
| CNC(=O)c1ccc(C(=O)Nc2ccc(F)c([C@]34CCC[C@H]3CSC(N)=N4)c2)nc1 [Example 127] | 214 nM |
| CCOC(=O)c1cnc(C(=O)Nc2ccc(F)c([C@]34CCC[C@H]3CSC(N)=N4)c2)nc1 [Example 128] | 231 nM |
| NC(=O)c1ccc(C(=O)Nc2ccc(F)c([C@]34CCC[C@H]3CSC(N)=N4)c2)nc1 [Example 129] | 65 nM |
| NC1=N[C@@]2(c3cc(NC(=O)c4ccc(C5CC5)cn4)ccc3F)CCC[C@H]2CS1 [Example 134] | 86 nM |
| NC1=N[C@@]2(c3cc(NC(=O)c4ccc5cnccc5n4)ccc3F)CCC[C@H]2CS1 [Example 138] | 63 nM |
| NC1=N[C@@]2(c3cc(NC(=O)c4ccc5ccccc5n4)ccc3F)CCC[C@H]2CS1 [Example 139] | 169 nM |
| NC1=N[C@@]2(c3cc(NC(=O)c4cnc5ccccc5n4)ccc3F)CCC[C@H]2CS1 [Example 140] | 67 nM |
| C[C@H]1OC[C@H]2CSC(N)=N[C@]21c1cc(NC(=O)c2ccc(C#N)cn2)ccc1F [Example 151] | 167 nM |
| N#Cc1ccc(C(=O)Nc2ccc(F)c([C@]34CO[C@H](CF)[C@H]3CSC(N)=N4)c2)nc1 [Example 164, N-[3-((4aS,5S,7aS)-2-amino-5-fluoromethyl-4a,5-dihydro-4H-furo[3,4-d][1,3]thiazin-7a-yl)-4-fluorophenyl]-5-cyanopyridine-2-carboxamide] | 1 nM |
| Cc1cnc(C(=O)Nc2ccc(F)c([C@]34CCC[C@H]3CSC(N)=N4)c2)cn1 [Example 195] | 68 nM |
| NC1=N[C@@]2(c3cc(NC(=O)c4ccc(OCc5ccccc5)cn4)ccc3F)CCC[C@H]2CS1 [Example 196] | 977 nM |
| Cc1cc(Cl)ccc1C(=O)Nc1ccc(F)c([C@]23CCC[C@H]2CSC(N)=N3)c1 [Example 197] | 220 nM |
| NC1=N[C@@]2(c3cc(NC(=O)c4ncccn4)ccc3F)CCC[C@H]2CS1 [Example 198] | 129 nM |
